Data as given in PMC3735939, “The low levels of eicosapentaenoic acid in rat brain phospholipids are maintained via multiple redundant mechanisms” (Journal of Lipid Research, 2013).

Assays:
[1] = In vivo kinetics of FA incorporation and turnover in brain phospholipids (intravenous radiotracer infusion, kinetic model); set-up: species or system rat; conditions: MEP vs vehicle
Procedure, shortened: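 Rats were given vehicle or MEP 10 mg/kg via tail vein, then radiolabelled fatty acid was infused intravenously for 5 min to steady-state plasma radioactivity while the animals were unanesthetized, with serial jugular blood sampling. They were killed by head-focused microwave irradiation, and brain incorporation was modelled from plasma unesterified fatty acid and acyl-CoA pools.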

[2] = Brain acyl-CoA concentrations (LC-MS/MS) in vehicle- or MEP-treated rats; format: in vivo, rat; conditions: MEP vs vehicle
Procedure: At 15 weeks of age, 16 rats were randomized to receive vehicle or 10 mg/kg MEP via tail vein catheter as described above. Fifteen minutes post injection, rats were euthanized by head-focused high energy microwave irradiation (13.5 kW for 1.6 s) and brains were excised and sagittally cut for unesterified FAs/lipid mediators and acyl-CoA analyses as described below. Brain hemispheres were homogenized in ethanol to yield a concentration of 100 mg tissue/ml. The unesterified FAs from 100 mg of brain tissue were isolated. The unesterified FA bands were collected and extracted twice from silica by hexane:isopropanol (3:2 by volume) with 5.5% water. Extracted unesterified FAs were dried down with nitrogen gas and added with 100 μl of freshly made pentafluorobenzylbromide (PFB) cocktail consisting of acetonitrile:N,N-diisopropylethylamine:PFB (1 ml:100 μl:10 μl by volume). The mixtures were shaken for 15 min and dried down with nitrogen gas. FA-PFB esters (FAPEs) were reconstituted in 100 μl hexane for GC-MS analysis as described below.
Long chain acyl-CoA was extracted from the brains of vehicle- and MEP-treated rats as well as the brains of radiotracer-infused rats using a modified affinity chromatography method ([40]). Brains were homogenized by a probe sonicator in isopropanol:25 mM KH2PO4:acetonitrile (1:1:2 by volume) with 10 nmol of added internal standard, heptadecanoyl-CoA (17:0-CoA). Subsequently, protein was precipitated from the homogenate by the addition of saturated (NH4)2SO4. […]
Acyl-CoA concentrations were detected using an Agilent 1200 Binary LC pump (Agilent Technologies, Wilmington, DE) equipped with a Zorbax SB-Phenyl column (3 × 50 mm, 3.5 μm spherical size; Chromatographic Specialties, Brockville, ON, Canada). […] Peaks were identified and quantified by mass transitions, compound specific parameters, and standard curves of authentic acyl-CoA standards (Avanti, Alabaster, AL) (supplementary Fig. I). Concentrations were corrected for percent recovery of heptadecanoyl-CoA and expressed as nmol/g brain.

In the case of CCCCCCCCCCCCCCC1(C(=O)OC)CO1 (centres unmarked) [MEP, methyl-2-tetradecylglycidate, reference compound], the “fold increase in esterification of 14C-palmitate into diacylglycerol” value [1] was 2 fold, the “fold increase in esterification of 14C-palmitate into triacylglycerol” value [1] was 2 fold and the “fold increase of t1/2 of EPA in ChoGpl” value [1] was 1.7 fold. The “fold increase of t1/2 of EPA-synthesized DHA in ChoGpl” value [1] was 4.3 fold, the “fold increase of t1/2 of EPA-synthesized DHA in EtnGpl” value [1] was 2.5 fold and the “fold increase of t1/2 of EPA-synthesized DHA in brain total phospholipids” value [1] was 4.2 fold. For the same compound, the “fold increase of t1/2 of EPA-synthesized n-3 DPA in PtdSer” value [1] was 1.6 fold, the “reduction of FFA of DHA in brain total phospholipids” value [1] was 24 % per day and the “increase in brain α-linolenoyl-CoA concentration” value [2] was 49%. For the same compound, the “reduction in brain DHA-CoA” value [2] was 26% and the “reduction in brain EPA-CoA” value [2] was 16%.
